In patent publication US20240116985A1, “STAPLED PEPTIDES AND METHODS THEREOF” (priority 2020, published 2024):
Converted amounts (≈) assume the structure as drawn. Like-named read-outs stand apart in the source and are kept apart here.

Experiments:
[1] = Solubility in PBS; assay type: physicochemical
Summary of the method: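 The PBS solution was ultracentrifuged and the supernatant analyzed by HPLC. Its peak area was divided by that of a 50 μM peptide DMSO reference injection and multiplied by 50 uM to give solubility.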

[2] = target: T1, full-length beta-Catenin (Uniprot ID P35222) (Homo sapiens, UniProt P35222); test: Fluorescence polarization IC50 (beta-catenin / 5FAM-TCF4 10-53 competition); assay type: binding
T1 construct: 10 nM full-length beta-Catenin (Uniprot ID P35222)
T1 sequence (P35222 1-781): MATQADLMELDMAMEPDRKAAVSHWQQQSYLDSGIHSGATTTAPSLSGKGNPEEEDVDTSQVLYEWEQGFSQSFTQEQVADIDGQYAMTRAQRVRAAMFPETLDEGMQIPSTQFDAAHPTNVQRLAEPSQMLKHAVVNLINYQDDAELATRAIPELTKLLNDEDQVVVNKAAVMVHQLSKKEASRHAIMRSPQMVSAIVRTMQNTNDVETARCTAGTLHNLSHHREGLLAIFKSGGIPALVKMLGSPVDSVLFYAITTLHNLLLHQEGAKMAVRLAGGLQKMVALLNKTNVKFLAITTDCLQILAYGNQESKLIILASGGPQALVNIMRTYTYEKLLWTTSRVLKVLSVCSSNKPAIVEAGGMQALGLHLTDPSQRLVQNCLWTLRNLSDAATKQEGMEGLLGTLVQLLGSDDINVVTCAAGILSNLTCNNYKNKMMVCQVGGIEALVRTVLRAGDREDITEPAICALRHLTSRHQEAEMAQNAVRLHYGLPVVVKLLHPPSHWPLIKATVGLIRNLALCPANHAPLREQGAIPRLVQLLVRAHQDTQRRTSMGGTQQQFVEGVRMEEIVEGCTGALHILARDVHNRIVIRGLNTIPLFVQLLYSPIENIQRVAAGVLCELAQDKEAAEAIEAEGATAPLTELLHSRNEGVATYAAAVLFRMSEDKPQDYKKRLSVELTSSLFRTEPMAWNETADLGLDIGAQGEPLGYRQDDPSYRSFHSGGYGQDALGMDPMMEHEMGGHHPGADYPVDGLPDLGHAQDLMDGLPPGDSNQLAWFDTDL

[3] = CHI Log D procedure; assay type: physicochemical; conditions: for chromatographic logD: pH 7.4, CHI Log D; for CHI Log D: pH 7.4
[4] = fluorescence polarization, read-out: beta-Catenin FP IC50

| Structure (SMILES) | Solubility [1] | IC50 [2, 4] | chromatographic logD [3] | Solubility ([1]; Solubility (uM)) | IC50 ([2]; read-out: FP EC50) | CHI Log D [3] |
| --- | --- | --- | --- | --- | --- | --- |
| CC(=O)N1CCC[C@]12CC=CCCCC1(CCCC=CCCCCCC[C@@](C)(C(=O)N[C@@H](Cc3ccccc3)C(=O)N[C@@H](Cc3csc4ccccc34)C(=O)N[C@H](CO)C(N)=O)NC(=O)[C@H](CCC(N)=O)NC(=O)[C@H](Cc3ccccc3)NC(=O)[C@H](C)NC(=O)[C@H](C)NC(=O)[C@H](CCC(=O)O)NC(=O)[C@H](CC(=O)O)NC1=O)NC(=O)[C@H](C)NC(=O)[C@H](CC(=O)O)NC2=O (stereo partly drawn) [I-493, Ac-PL3-Asp-Ala-B5-Asp-Glu-Ala-Ala-Phe-Gln-S8-Phe-BztA-DSer-NH2] | 50 µM (≈ 90 µg/mL) | 88 nM | 2.2 | – | – | – |
| CC(=O)N1CCC[C@]12CC=CCCCC1(CCCC=CCCCCCC[C@@](C)(C(=O)N[C@@H](Cc3ccccc3)C(=O)N[C@@H](Cc3csc4ccccc34)C(=O)N[C@H](CCC(N)=O)C(N)=O)NC(=O)[C@H](CCC(N)=O)NC(=O)[C@H](Cc3ccccc3)NC(=O)[C@H](C)NC(=O)[C@H](C)NC(=O)[C@H](CCC(=O)O)NC(=O)[C@H](CC(=O)O)NC1=O)NC(=O)[C@H](C)NC(=O)[C@H](CC(=O)O)NC2=O (stereo partly drawn) [I-494, Ac-PL3-Asp-Ala-B5-Asp-Glu-Ala-Ala-Phe-Gln-S8-Phe-BztA-DGIn-NH2] | – | 82 nM | 2.05 | 44 µM (≈ 81 µg/mL) | – | – |
| CC(=O)N1CCC[C@]12CC=CCCCC1(CCCC=CCCCCCC[C@@](C)(C(=O)N[C@@H](Cc3ccccc3)C(=O)N[C@@H](Cc3csc4ccccc34)C(=O)N[C@@H](Cc3c[nH]cn3)C(N)=O)NC(=O)[C@H](CCC(N)=O)NC(=O)[C@H](Cc3ccccc3)NC(=O)[C@H](C)NC(=O)[C@H](C)NC(=O)[C@H](CN(CC(=O)O)CC(F)(F)F)NC(=O)[C@H](CC(=O)O)NC1=O)NC(=O)[C@H](C)NC(=O)[C@H](CC(=O)O)NC2=O (stereo partly drawn) [I-499, Ac-PL3-Asp-Ala-B5-Asp-TfeGA-Ala-Ala-Phe-Gln-S8-Phe-BztA-His-NH2] | – | 123 nM | 2.17 | 48 µM (≈ 93.5 µg/mL) | – | – |
| CC[C@H](C)[C@@H]1NC(=O)[C@H](CC(=O)O)NC(=O)[C@]2(CC=CCCCC3(CCCC=CCCCCCC[C@@](C)(C(=O)N[C@@H](Cc4ccccc4)C(=O)N[C@@H](Cc4csc5ccccc45)C(=O)N[C@@H](Cc4c[nH]cn4)C(N)=O)NC(=O)[C@H](CCC(N)=O)NC(=O)[C@H](Cc4ccccc4)NC(=O)[C@H](C)NC(=O)[C@H](C)NC(=O)[C@H](CN(CC(=O)O)CC(F)(F)F)NC(=O)[C@H](CC(=O)O)NC3=O)NC1=O)CCCN2C(C)=O (stereo partly drawn) [I-500, Ac-PL3-Asp-Ile-B5-Asp-TfeGA-Ala-Ala-Phe-Gln-S8-Phe-BztA-His-NH2] | – | 176 nM | 2.63 | 28 µM (≈ 55.7 µg/mL) | – | – |
| CC(=O)N1CCC[C@]12CC=CCCCC1(CCCC=CCCCCCC[C@@](C)(C(=O)N[C@@H](Cc3ccccc3)C(=O)N[C@@H](Cc3csc4ccccc34)C(=O)N[C@@H](CCC(N)=O)C(N)=O)NC(=O)[C@H](CCC(N)=O)NC(=O)[C@H](Cc3ccccc3)NC(=O)[C@H](C)NC(=O)[C@H](C)NC(=O)[C@H](CCC(=O)O)NC(=O)[C@H](CC(=O)O)NC1=O)NC(=O)[C@H](CC(F)(F)F)NC(=O)[C@H](CC(=O)O)NC2=O (stereo partly drawn) [I-501, Ac-PL3-Asp-F3CA-B5-Asp-Glu-Ala-Ala-Phe-Gln-S8-Phe-BztA-Gln-NH2] | 49 µM (≈ 93.5 µg/mL) | 94 nM | – | – | 94 nM | 2.138 |
| CC(=O)N1CCC[C@]12CC=CCCCC1(CCCC=CCCCCCC[C@@](C)(C(=O)N[C@@H](Cc3ccccc3)C(=O)N[C@@H](Cc3csc4ccccc34)C(=O)N[C@H](C(N)=O)[C@@H](C)O)NC(=O)[C@H](CCC(N)=O)NC(=O)[C@H](Cc3ccccc3)NC(=O)[C@H](C)NC(=O)[C@H](C)NC(=O)[C@H](CCC(=O)O)NC(=O)[C@H](CC(=O)O)NC1=O)NC(=O)[C@H](C)NC(=O)[C@H](CC(=O)O)NC2=O (stereo partly drawn) [I-507, Ac-PL3-Asp-Ala-B5-Asp-Glu-Ala-Ala-Phe-Gln-S8-Phe-BztA-Thr-NH2] | 47 µM (≈ 85.3 µg/mL) | 192 nM | – | – | 192 nM | 2.079 |
| CC(=O)N1CCC[C@]12CC=CCCCC1(CCCC=CCCCCCC[C@@](C)(C(=O)N[C@@H](Cc3ccccc3)C(=O)N[C@@H](Cc3csc4ccccc34)C(=O)N[C@H](C(N)=O)[C@@H](C)O)NC(=O)[C@H](CCC(N)=O)NC(=O)[C@H](Cc3ccccc3)NC(=O)[C@H](C)NC(=O)[C@H](C)NC(=O)[C@H](CCC(=O)O)NC(=O)[C@H](CC(=O)O)NC1=O)NC(=O)[C@H](C)NC(=O)[C@H](CC(=O)O)NC2=O (stereo partly drawn) [I-508, Ac-PL3-Asp-Ala-B5-Asp-Glu-Ala-Ala-Phe-Gln-S8-Phe-BztA-Thr-NH2] | 50 µM (≈ 90.7 µg/mL) | 73 nM | – | – | 73 nM | 2.126 |
| COc1ccccc1C[C@H](NC(=O)[C@]1(C)CCCCCCC=CCCCC2(CCCC=CC[C@]3(CCCN3C(C)=O)C(=O)N[C@@H](CC(=O)O)C(=O)N[C@@H](C)C(=O)N2)C(=O)N[C@@H](CC(=O)O)C(=O)N[C@@H](CCC(=O)O)C(=O)N[C@@H](C)C(=O)N[C@@H](C)C(=O)N[C@@H](Cc2ccccc2)C(=O)N[C@@H](CC(N)=O)C(=O)N1)C(=O)N[C@@H](Cc1csc2ccccc12)C(=O)N[C@@H](Cc1c[nH]cn1)C(N)=O (stereo partly drawn) [I-510, Ac-PL3-Asp-Ala-B5-Asp-Glu-Ala-Ala-Phe-Asn-S8-2OMeF-BztA-His-NH2] | 43 µM (≈ 80.2 µg/mL) | 128 nM | – | – | 128 nM | 2.057 |

Second part, the molecule after the results:

| Solubility [1] | IC50 [2, 4] | chromatographic logD [3] | Solubility ([1]; Solubility (uM)) | IC50 ([2]; read-out: FP EC50) | CHI Log D [3] | Structure (SMILES) |
| --- | --- | --- | --- | --- | --- | --- |
| 50 µM (≈ 95.5 µg/mL) | 55 nM | – | – | 55 nM | 2.171 | CC(=O)N1CCC[C@]12CC=CCCCC1(CCCC=CCCCCCC[C@@](C)(C(=O)N[C@@H](Cc3ccccc3)C(=O)N[C@@H](Cc3csc4ccccc34)C(=O)N[C@@H](CCC(N)=O)C(N)=O)NC(=O)[C@H](CCC(N)=O)NC(=O)[C@H](Cc3ccccc3)NC(=O)[C@H](C)NC(=O)[C@H](C)NC(=O)[C@H](CCC(=O)O)NC(=O)[C@H](CC(=O)O)NC1=O)NC(=O)[C@H](CC(F)(F)F)NC(=O)[C@H](CC(=O)O)NC2=O (stereo partly drawn) [I-502, Ac-PL3-Asp-F3CA-B5-Asp-Glu-Ala-Ala-Phe-Gln-S8-Phe-BztA-Gln-NH2] |
| – | 84 nM | 2.09 | 33 µM (≈ 62.4 µg/mL) | – | – | CC(=O)N1CCC[C@]12CC=CCCCC1(CCCC=CCCCCCC[C@@](C)(C(=O)N[C@@H](Cc3ccccc3)C(=O)N[C@@H](Cc3csc4ccccc34)C(=O)N[C@@H](CCC(N)=O)C(N)=O)NC(=O)[C@H](CCC(N)=O)NC(=O)[C@H](Cc3ccccc3)NC(=O)[C@H](C)NC(=O)[C@H](C)NC(=O)[C@H](CCC(=O)O)NC(=O)[C@H](CC(=O)O)NC1=O)NC(=O)[C@H](CC(F)F)NC(=O)[C@H](CC(=O)O)NC2=O (stereo partly drawn) [I-503, Ac-PL3-Asp-HF2CA-B5-Asp-Glu-Ala-Ala-Phe-Gln-S8-Phe-BztA-Gln-NH2] |
| – | 65 nM | 2.22 | 18 µM (≈ 34.5 µg/mL) | – | – | CC(=O)N1CCC[C@]12CC=CCCCC1(CCCC=CCCCCCC[C@@](C)(C(=O)N[C@@H](Cc3ccccc3)C(=O)N[C@@H](Cc3csc4ccccc34)C(=O)N[C@@H](Cc3c[nH]cn3)C(N)=O)NC(=O)[C@H](CCC(N)=O)NC(=O)[C@H](Cc3ccccc3)NC(=O)[C@H](C)NC(=O)[C@H](C)NC(=O)[C@H](CCC(=O)O)NC(=O)[C@H](CC(=O)O)NC1=O)NC(=O)[C@H](CC(F)(F)F)NC(=O)[C@H](CC(=O)O)NC2=O (stereo partly drawn) [I-504, Ac-PL3-Asp-F3CA-B5-Asp-Glu-Ala-Ala-Phe-Gln-S8-Phe-BztA-His-NH2] |
| – | 99 nM | 2.16 | 41 µM (≈ 73.7 µg/mL) | – | – | CC[C@H](NC(=O)[C@H](Cc1csc2ccccc12)NC(=O)[C@H](Cc1ccccc1)NC(=O)[C@]1(C)CCCCCCC=CCCCC2(CCCC=CC[C@]3(CCCN3C(C)=O)C(=O)N[C@@H](CC(=O)O)C(=O)N[C@@H](C)C(=O)N2)C(=O)N[C@@H](CC(=O)O)C(=O)N[C@@H](CCC(=O)O)C(=O)N[C@@H](C)C(=O)N[C@@H](C)C(=O)N[C@@H](Cc2ccccc2)C(=O)N[C@@H](CCC(N)=O)C(=O)N1)C(N)=O (stereo partly drawn) [I-509, Ac-PL3-Asp-Ala-B5-Asp-Glu-Ala-Ala-Phe-Gln-S8-Phe-BztA-Abu-NH2] |
| 29 µM (≈ 54.1 µg/mL) | 40 nM | – | – | 40 nM | 2.099 | COc1ccccc1C[C@H](NC(=O)[C@]1(C)CCCCCCC=CCCCC2(CCCC=CC[C@]3(CCCN3C(C)=O)C(=O)N[C@@H](CC(=O)O)C(=O)N[C@@H](C)C(=O)N2)C(=O)N[C@@H](CC(=O)O)C(=O)N[C@@H](CCC(=O)O)C(=O)N[C@@H](C)C(=O)N[C@@H](C)C(=O)N[C@@H](Cc2ccccc2)C(=O)N[C@@H](CC(N)=O)C(=O)N1)C(=O)N[C@@H](Cc1csc2ccccc12)C(=O)N[C@@H](Cc1c[nH]cn1)C(N)=O (stereo partly drawn) [I-511, Ac-PL3-Asp-Ala-B5-Asp-Glu-Ala-Ala-Phe-Asn-S8-2OMeF-BztA-His-NH2] |
